pIC50: −log10 of the molar value.
How the values were obtained:
HCT116 MTAP null cells = test: HCT116 MTAP null cell line proliferation / cell viability (CellTiter-Glo, 6 days); format: cell-based; conditions: 144 h; HCT116 MTAP null cells, 6 days treatment, CellTiter-Glo cell viability; read-out: HCT-116 MTAP null IC50
Outline: (§1)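 Isogenic HCT116 pair (parental and MTAP-knockout) in RPMI 1640 + 10% FBS, treated 6 days with 8–9-point 1:3 dilutions from 1 or 10 μM top, or 22-point 1:2 dilutions from 10 or 50 μM top. Viability by CellTiter-Glo luminescence; IC50 from 4-parameter logistic fit or sigmoidal fit with Hill slope fixed at −1.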

HCT116 WT cells = test: HCT116 WT (parent) cell line proliferation / cell viability (CellTiter-Glo, 6 days); format: cell-based; conditions: Homo sapiens, HCT-116, 144 h, 6 days treatment
Outline: as §1

Row | Structure (SMILES) | pIC50 (HCT116 MTAP null cells) | pIC50 (HCT116 WT cells)
1 | CN(C(=O)c1ccc2nc(N)c3cnn(C)c3c2c1)[C@@H]1COc2cc(-c3cnn(C(F)(F)F)c3)ccc21 [Example 620, 4-amino-N,1-dimethyl-N-((3S)-6-(1-(trifluoromethyl)-1H-pyrazol-4-yl)-2,3-dihydro-1-benzofuran-3-yl)-1H-pyrazolo[4,3-c]quinoline-8-carboxamide] | 8.22 | 6.20
2 | CN(C(=O)c1ccc2nc(N)c3cnn(C)c3c2c1)[C@@H]1COc2cc(-c3cn[nH]c3)ccc21 [Example 622, (S)—N-(6-(1H-pyrazol-4-yl)-2,3-dihydrobenzofuran-3-yl)-4-amino-N,1-dimethyl-1H-pyrazolo[4,3-c]quinoline-8-carboxamide] | 7.85 | 6.06
3 | CN(C(=O)c1ccc2nc(N)c3cnn(C)c3c2c1)[C@@H]1COc2cc(C3COC3)ccc21 [Example 625, 4-amino-N,1-dimethyl-N-((3S)-6-(3-oxetanyl)-2,3-dihydro-1-benzofuran-3-yl)-1H-pyrazolo[4,3-c]quinoline-8-carboxamide] | 7.54 | 5.63
4 | CN(C(=O)c1ccc2nc(N)c3cnn(C)c3c2c1)[C@@H]1COc2cc(-c3ccoc3)ccc21 [Example 626, 4-amino-N-((3S)-6-(3-furanyl)-2,3-dihydro-1-benzofuran-3-yl)-N,1-dimethyl-1H-pyrazolo[4,3-c]quinoline-8-carboxamide] | 8.22 | 6.42
5 | CN(C(=O)c1ccc2nc(N)c3cnn(C)c3c2c1)[C@@H]1COc2cc(-c3cccnc3)ccc21 [Example 628, 4-amino-N,1-dimethyl-N-((3S)-6-(3-pyridinyl)-2,3-dihydro-1-benzofuran-3-yl)-1H-pyrazolo[4,3-c]quinoline-8-carboxamide] | 8.30 | 6.29
6 | CN(C(=O)c1ccc2nc(N)c3cnn(C)c3c2c1)[C@@H]1COc2cc(-c3ccnn3C)ccc21 [Example 630, 4-amino-N,1-dimethyl-N-((3S)-6-(1-methyl-1H-pyrazol-5-yl)-2,3-dihydro-1-benzofuran-3-yl)-1H-pyrazolo[4,3-c]quinoline-8-carboxamide] | 8.52 | 6.65
7 | CN(C(=O)c1ccc2nc(N)c3cnn(C)c3c2c1)[C@@H]1COc2cc(-c3ccn(C)n3)ccc21 [Example 631, 4-amino-N,1-dimethyl-N-((3S)-6-(1-methyl-1H-pyrazol-3-yl)-2,3-dihydro-1-benzofuran-3-yl)-1H-pyrazolo[4,3-c]quinoline-8-carboxamide] | 7.64 | 5.60
8 | Cc1cc(-c2ccc3c(c2)OC[C@H]3N(C)C(=O)c2ccc3nc(N)c4cnn(C)c4c3c2)co1 [Example 632, 4-amino-N,1-dimethyl-N-((3S)-6-(5-methyl-3-furanyl)-2,3-dihydro-1-benzofuran-3-yl)-1H-pyrazolo[4,3-c]quinoline-8-carboxamide] | 7.59 | 6.08
9 | Cc1cc(-c2ccc3c(c2)OC[C@H]3N(C)C(=O)c2ccc3nc(N)c4cnn(C)c4c3c2)on1 [Example 633, 4-amino-N,1-dimethyl-N-((3S)-6-(3-methyl-1,2-oxazol-5-yl)-2,3-dihydro-1-benzofuran-3-yl)-1H-pyrazolo[4,3-c]quinoline-8-carboxamide] | 8.10 | 6.17
10 | CN(C(=O)c1ccc2nc(N)c3cnn(C)c3c2c1)[C@@H]1COc2cc(-c3cscn3)ccc21 [Example 635, 4-amino-N,1-dimethyl-N-((3S)-6-(1,3-thiazol-4-yl)-2,3-dihydro-1-benzofuran-3-yl)-1H-pyrazolo[4,3-c]quinoline-8-carboxamide] | 8.05 | 6.21
11 | Cc1ncc(-c2ccc3c(c2)OC[C@H]3N(C)C(=O)c2ccc3nc(N)c4cnn(C)c4c3c2)cn1 [Example 636, 4-amino-N,1-dimethyl-N-((3S)-6-(2-methyl-5-pyrimidinyl)-2,3-dihydro-1-benzofuran-3-yl)-1H-pyrazolo[4,3-c]quinoline-8-carboxamide] | 7.89 | 5.71
12 | CN(C(=O)c1ccc2nc(N)c3cnn(C)c3c2c1)[C@@H]1COc2cc(-c3ccc(F)nc3)ccc21 [Example 638, 4-amino-N-((3S)-6-(6-fluoro-3-pyridinyl)-2,3-dihydro-1-benzofuran-3-yl)-N,1-dimethyl-1H-pyrazolo[4,3-c]quinoline-8-carboxamide] | 8.22 | 6.23
13 | CN(C(=O)c1ccc2nc(N)c3cnn(C)c3c2c1)[C@@H]1COc2cc(-c3cnn(C4CC4)c3)ccc21 [Example 640, 4-amino-N-((3S)-6-(1-cyclopropyl-1H-pyrazol-4-yl)-2,3-dihydro-1-benzofuran-3-yl)-N,1-dimethyl-1H-pyrazolo[4,3-c]quinoline-8-carboxamide] | 7.80 | 5.69

Other lines, results leading:

Row | pIC50 (HCT116 MTAP null cells) | pIC50 (HCT116 WT cells) | Structure (SMILES)
14 | 7.60 | 5.98 | CCN(C(=O)c1ccc2nc(N)c3c(c2c1)CO[C@@H]3C)[C@@H]1COCc2cc(C3CC3)ccc21 [Example 621, (3R)-4-amino-N-((4S)-7-cyclopropyl-3,4-dihydro-1H-2-benzopyran-4-yl)-N-ethyl-3-methyl-1,3-dihydrofuro[3,4-c]quinoline-8-carboxamide]
15 | 8.40 | 6.87 | CN(C(=O)c1ccc2nc(N)c3cnn(C)c3c2c1)[C@@H]1COc2cc(-c3ccncc3)ccc21 [Example 627, 4-amino-N,1-dimethyl-N-((3S)-6-(4-pyridinyl)-2,3-dihydro-1-benzofuran-3-yl)-1H-pyrazolo[4,3-c]quinoline-8-carboxamide]
16 | 8.40 | 6.16 | CN(C(=O)c1ccc2nc(N)c3cnn(C)c3c2c1)[C@@H]1COc2cc(-c3cnn(C)c3)ccc21 [Example 629, 4-amino-N,1-dimethyl-N-((3S)-6-(1-methyl-1H-pyrazol-4-yl)-2,3-dihydro-1-benzofuran-3-yl)-1H-pyrazolo[4,3-c]quinoline-8-carboxamide]
17 | 8.10 | 6.28 | CN(C(=O)c1ccc2nc(N)c3cnn(C)c3c2c1)[C@@H]1COc2cc(C3=CCCOC3)ccc21 [Example 634, 4-amino-N-((3S)-6-(5,6-dihydro-2H-pyran-3-yl)-2,3-dihydro-1-benzofuran-3-yl)-N,1-dimethyl-1H-pyrazolo[4,3-c]quinoline-8-carboxamide]
18 | 6.47 | 4.49 | CN(C(=O)c1ccc2nc(N)c3cnn(C)c3c2c1)[C@@H]1COc2cc(-c3cnc(=O)[nH]c3)ccc21 [Example 637, 4-amino-N,1-dimethyl-N-((3S)-6-(2-oxo-1,2-dihydro-5-pyrimidinyl)-2,3-dihydro-1-benzofuran-3-yl)-1H-pyrazolo[4,3-c]quinoline-8-carboxamide]
19 | 7.82 | 5.85 | CCn1cc(-c2ccc3c(c2)OC[C@H]3N(C)C(=O)c2ccc3nc(N)c4cnn(C)c4c3c2)cn1 [Example 639, 4-amino-N-((3S)-6-(1-ethyl-1H-pyrazol-4-yl)-2,3-dihydro-1-benzofuran-3-yl)-N,1-dimethyl-1H-pyrazolo[4,3-c]quinoline-8-carboxamide]
20 | 7.38 | 5.80 | CN(C(=O)c1ccc2nc(N)c3cnn(C)c3c2c1)[C@@H]1COc2cc(-c3cc(F)cc(F)c3)ccc21 [Example 641, 4-amino-N-((3S)-6-(3,5-difluorophenyl)-2,3-dihydro-1-benzofuran-3-yl)-N,1-dimethyl-1H-pyrazolo[4,3-c]quinoline-8-carboxamide]
